Experimental findings from patent US20230038646A1, “NOVEL AND POTENT JAK/STAT INHIBITOR” (Texas Tech University System, priority 2020, published 2023) are described below.

Test [1] relates to Daoy, KNS42 and IMR32 brain cancer cells. Nature of the test: Annexin V/FITC apoptosis assay (FIGS. 2A-2C). Format: cell-based. As for the experimental part:
The percentage of apoptotic cells with 20 µM moxidectin treatment ranged from 90-100% in all the brain cancer cell lines tested (FIGS. 2A-2C).
Induction of apoptosis by moxidectin. The mode of cell death caused by moxidectin treatment was determined by Annexin V/FITC assay in Daoy, KNS42 and IMR32 brain cancer cells. […] 15 µM moxidectin induced -80% apoptosis in Daoy, KNS42 and IMR32 brain cancer cell lines. The percentage of apoptotic cells with 20 µM moxidectin treatment ranged from 90-100% in all the brain cancer cell lines tested (FIGS. 2A-2C). Induction of apoptosis by moxidectin treatment in these cell lines was further assessed by increase in the cleavage of caspase 3 and PARP (FIG. 3).

Test [2] relates to Daoy (medulloblastoma), IMR32 (neuroblastoma) and KNS42 (glioblastoma) cells. Nature of the test: Proliferation / survival of brain cancer cells (FIGS. 1A-1C). Format: cell-based. From the text: Moxidectin treatment suppresses the proliferation of brain cancer cells.
In test [3] the test system is Daoy cells (medulloblastoma). Nature of the test: Subcutaneously implanted Daoy tumor growth in mice. It is filed as in vivo. As to conditions: subcutaneous Daoy. The protocol: (§1) Moxidectin suppresses the growth of subcutaneously implanted brain cancer cells. To evaluate the ability of moxidectin in inhibiting the growth of brain tumor cells in vivo, ~ 4 million Daoy cells were injected subcutaneously into the right flank of the mice. Once the tumor cells started growing and the tumor volume reached ~ 70 mm^3, mice were randomized into four groups. Control group received the vehicle whereas the treatment group received 2.5 mg/kg, 5 mg/kg and 10 mg/kg moxidectin once every day. The tumor readings were taken twice a week throughout the course of the experiment using Vernier caliper. […] Similarly, 2.5 mg/kg and 5 mg/kg moxidectin suppressed Daoy tumor growth by 45% and 60% respectively (FIG. 4B).
as §1, with “4C). […] In another experiment, ~0.3 million Daoy luc cells were injected intracranially in the brain of athymic nude mice. The mice were given 2.5 mg/kg for 33 days. Moxidectin was able to inhibit -65% of intracranially implanted medulloblastoma tumors. […] Additionally, ~ 3 million SK-N-AS neuroblastoma cells were injected subcutaneously in the right flank of the mice. Mice were randomized on day 10. Treatment group received 3.5 mg/kg moxidectin. The experiment was terminated on day 23. Moxidectin was able to inhibit 60% of subcutaneously implanted neuroblastoma tumors (FIG. 4D).” for “4B).”

Test [4] has as its system STAT3. Nature of the test: Western blotting of STAT3 phosphorylation in treated brain cancer cells. It is filed as cell-based. As to conditions: Daoy, IMR32, KNS42; 0, 10, 15 and 20 µM, 48 hours. The protocol: (§2) Moxidectin inhibits JAK-STAT signaling. In order to delineate the mechanism by which moxidectin mediates its anti-cancer effects in brain cancer cell lines, Daoy, IMR32, and KNS42 cells were treated with 0, 10, 15 and 20 µM moxidectin for 48 hours and evaluated by western blotting. […] It has been reported that, upon activation (phosphorylation) JAK2 activates multiple downstream transcription factors one of which is STAT3. Hyper activation of STAT3 in cancer cells is strongly attributed to evasion of apoptosis and transcriptional activation of anti-apoptotic proteins such as Bcl-2 and c-myc.
(§3) It has been reported that, upon activation (phosphorylation) JAK2 activates multiple downstream transcription factors one of which is STAT3. Hyperactivation of STAT3 in cancer cells is strongly attributed to evasion of apoptosis and transcriptional activation of anti-apoptotic proteins such as Bcl-2 and c-myc.
(A western blot detects proteins with antibodies after separation by electrophoresis.)

Test [5] relates to Janus Kinase 2 (JAK2). Nature of the test: Western blotting of JAK2 in treated brain cancer cells. Format: cell-based. As to conditions: Daoy, IMR32, KNS42, 0, 10, 15 and 20 µM, 48 hours. The protocol:
Daoy, IMR32, and KNS42 cells were treated with 0, 10, 15 and 20 µM moxidectin for 48 hours and evaluated by western blotting.
as §2, §3

In test [6] the test system is Daoy, UW228, ONS76, UW426, PFSK1 and IMR32 brain cancer cells. Nature of the test: Annexin V/FITC apoptosis assay (FIGS. 6A-6F). It is filed as cell-based. The protocol:
(§4) The mode of cell death caused by moxidectin treatment was determined by Annexin V/FITC assay in Daoy, UW228, ONS76, UW426, PFSK1 and IMR32 brain cancer cells (FIGS. 6A-6F, resepectively). […] 15 µM moxidectin induced -80% apoptosis in Daoy and IMR32 brain cancer cell lines. The percentage of apoptotic cells with 20 µM moxidectin treatment ranged from 90-100% in all the brain cancer cell lines. Induction of apoptosis by moxidectin treatment in these cell lines was further assessed by increase in the cleavage of caspase 3 and PARP (FIG. 3).
as §4, with “FIGS. 6A-6F show the induction of apoptosis by moxidectin. The mode” for “The mode”, “PARP (FIG. 7).” for “PARP (FIG. 3).”

In test [7] the test system is caspase 3 and PARP. Nature of the test: Western blotting of caspase 3 and PARP cleavage in treated brain cancer cells. As to conditions: Daoy, IMR32 and KNS42; 48 hours. Format: cell-based. As for the experimental part:
as §2
(§5) Moreover, moxidectin increased the cleavage of caspase 3 and PARP as an indication of apoptosis, a primary mode of cell death (FIG. 3).
(§6) Moreover, moxidectin increased the cleavage of caspase 3 and PARP as an indication of apoptosis, a primary mode of cell death (FIG. 7).

For test [8], the system named is Bcl-2. Nature of the test: Western blotting of Bcl-2 expression in treated brain cancer cells. As to conditions: Daoy, IMR32 and KNS42; 48 hours. It is filed as cell-based. As for the experimental part: as §2, §5, §6
Test [9] concerns Daoy, UW228, ONS76, UW246, PFSK1 (medulloblastoma), IMR32, SF268, SF295 (glioblastoma), SK-N-AS (neuroblastoma) cells. Nature of the test: Proliferation / survival of brain cancer cell line panel (FIGS. 5A-5I). It is filed as cell-based.
For test [10], the system named is Daoy luc cells (medulloblastoma). Nature of the test: Intracranially implanted Daoy luc tumors in mice. Format: in vivo, athymic nude mice. As to conditions: 2.5 mg/kg for 33 days; intracranial Daoy luc.
The subject of test [11] is SK-N-AS neuroblastoma cells. Nature of the test: Subcutaneously implanted SK-N-AS neuroblastoma tumors in mice. It is filed as in vivo. As to conditions: 3.5 mg/kg; randomized day 10, terminated day 23.
[12] abbreviates: treatment for 48 hours, all brain cancer cells.
[13] abbreviates: varying concentrations, concentration and time-dependent.

A word on the IC50: it is the concentration at which inhibition is half-maximal. Low values mean higher potency, high ones lower potency.

On to `CO/N=C1\C[C@]2(C[C@@H]3C[C@@H](C/C=C(\C)C[C@@H](C)/C=C/C=C4\CO[C@@H]5[C@H](O)C(C)=C[C@@H](C(=O)O3)[C@]45O)O2)O[C@H](/C(C)=C/C(C)C)[C@H]1C` [Moxidectin], for which the apoptotic effects result in test [1] (10 µM, 48 hours, all three cell lines) is on record as “minimal apoptotic effects”; in test [6] (10 µM, 48 hours, all cell lines tested), “minimal apoptotic effects”. In addition, the apoptosis induced in test [1] (15 µM, 48 hours, Daoy, KNS42 and IMR32) came out at 80%; in test [6] (15 µM, 48 hours, Daoy and IMR32) it was 80%. For the same compound, the “percentage of apoptotic cells” value in test [1] (20 µM, 48 hours, all cell lines tested) is on record as 90-100%; in test [6] (20 µM, 48 hours, all cell lines), 90-100%. Moreover, the apoptosis result in [1] (setting [12]) and in test [6] (setting [12]) was “significant increase” in each case. Moreover, the half-maximal inhibitory concentration (IC50) in test [2] (Daoy, IMR32 and KNS42, 24, 48 and 72-hour time point) lay within 11 to 16 µM; in [9] (all brain cancer cell lines, 24, 48 and 72-hour time point), 9.7 to 30 µM. Besides, the survival of cells entry in [2] (setting [13]) and in test [9] (setting [13]) was “significant reduction” throughout. Further, the “suppression of tumor growth” value in test [3] (2.5 mg/kg once every day) worked out at 45%; in test [3] (5 mg/kg once every day), 60%; in test [3] (10 mg/kg once every day), 90%. Also, the “phosphorylation of STAT3 at Tyr705” value in [4] is “reduced”. Further, the “protein level of JAK2” value in test [5] is on record as “remained unchanged”. In addition, the “phosphorylation of JAK2 at Tyr1007/1008” value in test [5] (concentration-dependent) was “reduced”. For the same compound, the “cleavage of caspase 3 and PARP” value in [7] is recorded as “increased”. For the same compound, in test [8], the “expression of anti-apoptotic protein Bcl-2” value is listed as “reduced”. This compound yielded an inhibition of intracranially implanted tumors in test [10] of 65%. Moreover, the “inhibition of subcutaneously implanted neuroblastoma tumors” value in [11] was 60%.
